Key:
[1] = system: H23 human adenocarcinoma non-small cell lung cancer cells
Experimental: Considering downregulation of downstream-phosphorylated proteins, the cell viability of H23 cells (MTT assay) after knocking down the RAS pathway was then investigated.
(Thermo Scientific, USA). For determining in vitro cytotoxicity, the MTT assay was performed by incubating various samples including the nanoparticle of interest on H23 and A549 cells.
Each sample was analyzed in triplicate. After 24 hours of incubation, 10 μl of MTT solution (ATCC, USA) was added and the plate was incubated at 37° C. for 4 hours. Crystals formed were dissolved in 100 μl solubilizing buffer and the plates were kept at 25° C. for 2 hours. The intensity of the color developed after addition of the solubilizing buffer was measured using Biotek Cytation 3 spectrophotometer at 570 nm.
Viability of the cells transfected with various samples was then calculated by considering the untreated cells as 100% viable.

[2] = system: DUSP6 gene expression in H23 cells; assay: Quantitative real-time RT-PCR of DUSP6; assay type: cell-based, human; settings: relative to untreated, 18sRNA reference
Experimental: In this inquiry, quantitative real time PCR was performed to examine dual specificity phosphatase 6 (DUSP6) and CD73 gene expression levels.
(§1) The effect of the oncogene knockdown on gene expression of DUSP6 and NT5E genes were observed by quantitative real-time RT-PCR. Initially H23 cells (1×10^6 cells/well) were treated with 4 samples including untreated, GelNP-Ab, GelNP-Ab-siRNA and siRNA (transfection agent). RNA was extracted through standard RNA extraction protocol. cDNA was synthesized from RNA extracted from the treated cells. The quality and the concentration of the extracted RNA was determined using bioanalyzer. 18sRNA was used as an reference gene (housekeeping gene) for data normalization. Primers and probes for all genes were purchased from Integrated DNA Technologies (IDT). PCR was performed in a reaction volume of 20 μl containing 2 μl cDNA using the Gene Amp 7700 Sequence Detection System. The comparative Ct protocol was followed to determine the relative expression levels.

[3] = system: NT5E (CD73) gene expression in H23 cells; assay: Quantitative real-time RT-PCR of NT5E (CD73); assay type: cell-based, human; settings: relative to untreated, 18sRNA reference
Experimental: as §1

[4] = system: SHP2, pSHP2 (Y542), pSHP2 (Y580) in KRAS mutated H23 cells; assay: Western blot and densitometry for SHP2 and phospho-SHP2
Experimental: The Western blot analysis was performed as follows. Cells were seeded at a density of 1×10^6 cells/ml and incubated for overnight at 37° C. in 5% CO2 atmosphere. Nanoparticle and relevant control samples were incubated in serum free media for the period of 72 hrs. […] Whole-cell lysates were prepared using Triton X 100 lysis buffer with MS-SAFE protease and phosphatase cocktail inhibitor (Sigma-Aldrich) and the protein concentration was equalized by Bicinchoninic acid assay (Sigma-Aldrich).
Membranes were incubated with primary antibody overnight, were washed and incubated with secondary antibody. Primary antibodies used for western blotting are rabbit polyclonal anti-β-actin, rabbit monoclonal anti-AKT, rabbit monoclonal anti-phospho-AKT, rabbit polyclonal anti-MEK1/2, rabbit polyclonal anti-phospho-MEK1/2, rabbit monoclonal anti-EGFR, rabbit monoclonal anti-phospho-EGFR, rabbit monoclonal anti-SHP2, rabbit polyclonal anti-phospho-SHP2 (Tyr542), rabbit polyclonal anti-phospho-SHP2 (Tyr580), rabbit monoclonal anti-phospho-GAB1 (Tyr627), rabbit polyclonal anti-phospho-GAB1 (Tyr307), all from Cell Signaling and mouse monoclonal anti-KRAS from Santa Cruz Biotech. […] Protein expression levels were quantified by densitometry analysis.

transfected siRNA: KRAS G12C siRNA (SEQ ID NO. 1 annealed with SEQ ID NO. 2) delivered with transfecting agent (sense GUUGGAGCUUGUGGCGUAGUUUU; antisense AACUACGCCACAAGCUCCAACUU; disulfide moiety, further chemistry not given here)
cytotoxicity / change in viability (in words) [1]: no toxicity
cell survival post RAS oncogene knockdown ([1]; H23 cells, without gefitinib): 100%
RF value of DUSP6 (real time qPCR) [2]: 0.1
CD73 (NT5E) RF value (real time qPCR) [3]: 1.07
SHP2, pSHP2 (Y542) and pSHP2 (Y580) level ([4]; in the presence of gefitinib): significant downregulation
SHP2, pSHP2 (Y542) and pSHP2 (Y580) level ([4]; without gefitinib): did not show any effect

— US10426842B2, “Targeted nanoparticle conjugate and method for co-delivery of siRNA and drug” (The Curators of the University of Missouri, priority 2015, dated 2019)
